# Source: article PMC3353862
# pIC50: −log10 of the molar value.
# Tested on: E. coli tolC mutants
# Test: Broth microdilution MIC testing
# Format: cell-based, Escherichia coli
# Conditions: E. coli tolC mutants
row,Compound,MIC E. coli tolC [µg/mL]
1,O=c1[nH]c(-c2ccccn2)nc2c1CN(Cc1cc(Cl)ccc1Cl)CC2 [Compound 323340],1
2,O=c1[nH]c(-c2ccccn2)nc2c1CN(Cc1ccc(Br)cc1)CC2 [Compound 323341],8
3,O=c1[nH]c(-c2ccccn2)nc2c1CN(Cc1ccc(Cl)c(Cl)c1)CC2 [Compound 323342],4
4,O=c1[nH]c(-c2ccccn2)nc2c1CN(Cc1ccc(Cl)cc1Cl)CC2 [Compound 323343],4
5,O=c1[nH]c(-c2ccccn2)nc2c1CN(Cc1cccc(Cl)c1Cl)CC2 [Compound 323344],1

# Same assay, conditions: Escherichia coli, read-out: MIC E. coli tolC
row,Compound,MIC [µg/mL]
1,Oc1cccc(CN2CCc3nc(-c4ccccn4)nc(O)c3C2)c1 [Compound 321526],> 128
2,Oc1nc(-c2ccccn2)nc2c1CCN(Cc1ccc(Cl)cc1)C2 [Compound 323338],4
3,Cn1c(-c2ccccn2)nc2c(c1=O)CN(Cc1ccc(Cl)cc1)CC2 [Compound 323345],128
4,Cc1nc(-c2nc3c(c(=O)[nH]2)CN(Cc2ccc(Cl)cc2)CC3)cs1 [Compound 323356],128

# Tested on: H. influenzae
# Test: Broth microdilution MIC testing
# Format: cell-based, Haemophilus influenzae
# Conditions: H. influenzae
row,Compound,MIC H. flu [µg/mL]
1,O=c1[nH]c(-c2ccccn2)nc2c1CN(Cc1cc(Cl)ccc1Cl)CC2 [Compound 323340],1
2,O=c1[nH]c(-c2ccccn2)nc2c1CN(Cc1ccc(Br)cc1)CC2 [Compound 323341],2
3,O=c1[nH]c(-c2ccccn2)nc2c1CN(Cc1ccc(Cl)c(Cl)c1)CC2 [Compound 323342],2
4,O=c1[nH]c(-c2ccccn2)nc2c1CN(Cc1ccc(Cl)cc1Cl)CC2 [Compound 323343],1
5,O=c1[nH]c(-c2ccccn2)nc2c1CN(Cc1cccc(Cl)c1Cl)CC2 [Compound 323344],4

# Same assay, conditions: Haemophilus influenzae, read-out: MIC H. flu
row,Compound,MIC [µg/mL]
1,Oc1cccc(CN2CCc3nc(-c4ccccn4)nc(O)c3C2)c1 [Compound 321526],> 128
2,Oc1nc(-c2ccccn2)nc2c1CCN(Cc1ccc(Cl)cc1)C2 [Compound 323338],2
3,Cn1c(-c2ccccn2)nc2c(c1=O)CN(Cc1ccc(Cl)cc1)CC2 [Compound 323345],64
4,Cc1nc(-c2nc3c(c(=O)[nH]2)CN(Cc2ccc(Cl)cc2)CC3)cs1 [Compound 323356],64

# Tested on: panel of bacteria
# Test: Antibacterial activity against the panel of bacteria (MIC, overall); on MIC (antibacterial activity grade): key: +: poor; ++: moderate; +++: good antibacterial activity
# Format: cell-based
# Conditions: Table 3
row,Compound,MIC (antibacterial activity grade)
1,Oc1nc(-c2ccccn2)nc2c1CCN(Cc1ccc(Cl)cc1)C2 [Compound 323338],+++
2,O=c1[nH]c(-c2ccccn2)nc2c1CN(Cc1cc(Cl)ccc1Cl)CC2 [Compound 323340],+++
3,O=c1[nH]c(-c2ccccn2)nc2c1CN(Cc1ccc(Br)cc1)CC2 [Compound 323341],+++
4,O=c1[nH]c(-c2ccccn2)nc2c1CN(Cc1ccc(Cl)c(Cl)c1)CC2 [Compound 323342],+++
5,O=c1[nH]c(-c2ccccn2)nc2c1CN(Cc1ccc(Cl)cc1Cl)CC2 [Compound 323343],+++
6,O=c1[nH]c(-c2ccccn2)nc2c1CN(Cc1cccc(Cl)c1Cl)CC2 [Compound 323344],+++

# Same assay, conditions: panel of bacteria
row,Compound,antibacterial activity
1,Oc1cccc(CN2CCc3nc(-c4ccccn4)nc(O)c3C2)c1 [Compound 321526],little or no anti-bacterial activity
2,O=c1[nH]c(-c2ccccn2)nc2c1CN(Cc1cc(Cl)ccc1Cl)CC2 [Compound 323340],good antibacterial activity
3,Cn1c(-c2ccccn2)nc2c(c1=O)CN(Cc1ccc(Cl)cc1)CC2 [Compound 323345],abolished most biochemical and antibacterial activities
4,Cc1nc(-c2nc3c(c(=O)[nH]2)CN(Cc2ccc(Cl)cc2)CC3)cs1 [Compound 323356],slight antibacterial activity

# Tested on: bacterial protein synthesis (aminoacylation/translation system)
# Test: aminoacylation/translation (A/T) assay
# Format: biochemical
# Conditions: not given
row,Compound,biochemical activity in the A/T assay
1,O=c1[nH]c(-c2ccccn2)nc2c1CN(Cc1cc(Cl)ccc1Cl)CC2 [Compound 323340],no inhibitory effect
2,Cn1c(-c2ccccn2)nc2c(c1=O)CN(Cc1ccc(Cl)cc1)CC2 [Compound 323345],abolished most biochemical and antibacterial activities
3,Cc1nc(-c2nc3c(c(=O)[nH]2)CN(Cc2ccc(Cl)cc2)CC3)cs1 [Compound 323356],abolished all biochemical activity

# Same assay, conditions: A/T assay, Table 1; read-out: IC50
row,Compound,pIC50
1,Oc1cccc(CN2CCc3nc(-c4ccccn4)nc(O)c3C2)c1 [Compound 321526],5.46
2,Oc1nc(-c2ccccn2)nc2c1CCN(Cc1ccc(Cl)cc1)C2 [Compound 323338],4.19
3,O=c1[nH]c(-c2ccccn2)nc2c1CN(Cc1cc(Cl)ccc1Cl)CC2 [Compound 323340],< 3.52
4,O=c1[nH]c(-c2ccccn2)nc2c1CN(Cc1ccc(Br)cc1)CC2 [Compound 323341],4.38
5,O=c1[nH]c(-c2ccccn2)nc2c1CN(Cc1ccc(Cl)c(Cl)c1)CC2 [Compound 323342],4.54
6,O=c1[nH]c(-c2ccccn2)nc2c1CN(Cc1ccc(Cl)cc1Cl)CC2 [Compound 323343],5.08
7,O=c1[nH]c(-c2ccccn2)nc2c1CN(Cc1cccc(Cl)c1Cl)CC2 [Compound 323344],4.94
8,Cn1c(-c2ccccn2)nc2c(c1=O)CN(Cc1ccc(Cl)cc1)CC2 [Compound 323345],< 3.52
9,Cc1nc(-c2nc3c(c(=O)[nH]2)CN(Cc2ccc(Cl)cc2)CC3)cs1 [Compound 323356],< 3.52

# Tested on: M. catarrhalis
# Test: Broth microdilution MIC testing
# Format: cell-based, Moraxella catarrhalis
# Conditions: not given
row,Compound,MIC M. cat [µg/mL]
1,O=c1[nH]c(-c2ccccn2)nc2c1CN(Cc1cc(Cl)ccc1Cl)CC2 [Compound 323340],≤0.12
2,O=c1[nH]c(-c2ccccn2)nc2c1CN(Cc1ccc(Br)cc1)CC2 [Compound 323341],≤0.12
3,O=c1[nH]c(-c2ccccn2)nc2c1CN(Cc1ccc(Cl)c(Cl)c1)CC2 [Compound 323342],≤0.12
4,O=c1[nH]c(-c2ccccn2)nc2c1CN(Cc1ccc(Cl)cc1Cl)CC2 [Compound 323343],≤0.12
5,O=c1[nH]c(-c2ccccn2)nc2c1CN(Cc1cccc(Cl)c1Cl)CC2 [Compound 323344],≤0.12

# Same assay, conditions: Moraxella catarrhalis
row,Compound,MIC [µg/mL]
1,Oc1cccc(CN2CCc3nc(-c4ccccn4)nc(O)c3C2)c1 [Compound 321526],64
2,Oc1nc(-c2ccccn2)nc2c1CCN(Cc1ccc(Cl)cc1)C2 [Compound 323338],≤ 0.12
3,Cn1c(-c2ccccn2)nc2c(c1=O)CN(Cc1ccc(Cl)cc1)CC2 [Compound 323345],32
4,Cc1nc(-c2nc3c(c(=O)[nH]2)CN(Cc2ccc(Cl)cc2)CC3)cs1 [Compound 323356],8

# Tested on: E. faecalis
# Test: Broth microdilution MIC testing
# Format: cell-based, Enterococcus faecalis
# Conditions: E. faecalis
row,Compound,MIC E. fae [µg/mL]
1,O=c1[nH]c(-c2ccccn2)nc2c1CN(Cc1cc(Cl)ccc1Cl)CC2 [Compound 323340],16
2,O=c1[nH]c(-c2ccccn2)nc2c1CN(Cc1ccc(Br)cc1)CC2 [Compound 323341],32
3,O=c1[nH]c(-c2ccccn2)nc2c1CN(Cc1ccc(Cl)c(Cl)c1)CC2 [Compound 323342],32
4,O=c1[nH]c(-c2ccccn2)nc2c1CN(Cc1ccc(Cl)cc1Cl)CC2 [Compound 323343],32
5,O=c1[nH]c(-c2ccccn2)nc2c1CN(Cc1cccc(Cl)c1Cl)CC2 [Compound 323344],32

# Same assay, conditions: Enterococcus faecalis, read-out: MIC E. fae
row,Compound,MIC [µg/mL]
1,Oc1cccc(CN2CCc3nc(-c4ccccn4)nc(O)c3C2)c1 [Compound 321526],> 128
2,Oc1nc(-c2ccccn2)nc2c1CCN(Cc1ccc(Cl)cc1)C2 [Compound 323338],16
3,Cn1c(-c2ccccn2)nc2c(c1=O)CN(Cc1ccc(Cl)cc1)CC2 [Compound 323345],> 128
4,Cc1nc(-c2nc3c(c(=O)[nH]2)CN(Cc2ccc(Cl)cc2)CC3)cs1 [Compound 323356],128

# Tested on: S. aureus
# Test: Broth microdilution MIC testing
# Format: cell-based, Staphylococcus aureus
# Conditions: S. aureus
row,Compound,MIC S. aureus [µg/mL]
1,O=c1[nH]c(-c2ccccn2)nc2c1CN(Cc1cc(Cl)ccc1Cl)CC2 [Compound 323340],4
2,O=c1[nH]c(-c2ccccn2)nc2c1CN(Cc1ccc(Br)cc1)CC2 [Compound 323341],16
3,O=c1[nH]c(-c2ccccn2)nc2c1CN(Cc1ccc(Cl)c(Cl)c1)CC2 [Compound 323342],32
4,O=c1[nH]c(-c2ccccn2)nc2c1CN(Cc1ccc(Cl)cc1Cl)CC2 [Compound 323343],8
5,O=c1[nH]c(-c2ccccn2)nc2c1CN(Cc1cccc(Cl)c1Cl)CC2 [Compound 323344],8

# Same assay, conditions: Staphylococcus aureus, read-out: MIC S. aureus
row,Compound,MIC [µg/mL]
1,Oc1cccc(CN2CCc3nc(-c4ccccn4)nc(O)c3C2)c1 [Compound 321526],> 128
2,Oc1nc(-c2ccccn2)nc2c1CCN(Cc1ccc(Cl)cc1)C2 [Compound 323338],16
3,Cn1c(-c2ccccn2)nc2c(c1=O)CN(Cc1ccc(Cl)cc1)CC2 [Compound 323345],> 128
4,Cc1nc(-c2nc3c(c(=O)[nH]2)CN(Cc2ccc(Cl)cc2)CC3)cs1 [Compound 323356],> 128

# Tested on: E. coli modified with PMBN
# Test: Broth microdilution MIC testing
# Format: cell-based, Escherichia coli
# Conditions: E. coli modified with PMBN
row,Compound,MIC E. coli +PMBP [µg/mL]
1,O=c1[nH]c(-c2ccccn2)nc2c1CN(Cc1cc(Cl)ccc1Cl)CC2 [Compound 323340],2
2,O=c1[nH]c(-c2ccccn2)nc2c1CN(Cc1ccc(Br)cc1)CC2 [Compound 323341],16
3,O=c1[nH]c(-c2ccccn2)nc2c1CN(Cc1ccc(Cl)c(Cl)c1)CC2 [Compound 323342],16
4,O=c1[nH]c(-c2ccccn2)nc2c1CN(Cc1ccc(Cl)cc1Cl)CC2 [Compound 323343],2
5,O=c1[nH]c(-c2ccccn2)nc2c1CN(Cc1cccc(Cl)c1Cl)CC2 [Compound 323344],4

# Same assay, conditions: Escherichia coli, read-out: MIC E. coli +PMBP
row,Compound,MIC [µg/mL]
1,Oc1cccc(CN2CCc3nc(-c4ccccn4)nc(O)c3C2)c1 [Compound 321526],> 128
2,Oc1nc(-c2ccccn2)nc2c1CCN(Cc1ccc(Cl)cc1)C2 [Compound 323338],8
3,Cn1c(-c2ccccn2)nc2c(c1=O)CN(Cc1ccc(Cl)cc1)CC2 [Compound 323345],128
4,Cc1nc(-c2nc3c(c(=O)[nH]2)CN(Cc2ccc(Cl)cc2)CC3)cs1 [Compound 323356],> 128

# Tested on: S. pneumoniae
# Test: Broth microdilution MIC testing
# Format: cell-based, Streptococcus pneumoniae
# Conditions: S. pneumoniae
row,Compound,MIC S. pneumo [µg/mL]
1,O=c1[nH]c(-c2ccccn2)nc2c1CN(Cc1cc(Cl)ccc1Cl)CC2 [Compound 323340],2
2,O=c1[nH]c(-c2ccccn2)nc2c1CN(Cc1ccc(Br)cc1)CC2 [Compound 323341],4
3,O=c1[nH]c(-c2ccccn2)nc2c1CN(Cc1ccc(Cl)c(Cl)c1)CC2 [Compound 323342],2
4,O=c1[nH]c(-c2ccccn2)nc2c1CN(Cc1ccc(Cl)cc1Cl)CC2 [Compound 323343],2
5,O=c1[nH]c(-c2ccccn2)nc2c1CN(Cc1cccc(Cl)c1Cl)CC2 [Compound 323344],2

# Same assay, conditions: Streptococcus pneumoniae, read-out: MIC S. pneumo
row,Compound,MIC [µg/mL]
1,Oc1cccc(CN2CCc3nc(-c4ccccn4)nc(O)c3C2)c1 [Compound 321526],> 128
2,Oc1nc(-c2ccccn2)nc2c1CCN(Cc1ccc(Cl)cc1)C2 [Compound 323338],4
3,Cn1c(-c2ccccn2)nc2c(c1=O)CN(Cc1ccc(Cl)cc1)CC2 [Compound 323345],128
4,Cc1nc(-c2nc3c(c(=O)[nH]2)CN(Cc2ccc(Cl)cc2)CC3)cs1 [Compound 323356],128
